The values that follow come from ChEMBL document CHEMBL1137960, “Miraziridine A: natures blueprint towards protease class-spanning inhibitors” (Bioorg Med Chem Lett, 2004).

Test [1] deals with Procathepsin L (Homo sapiens) (UniProt P07711). In words: Second order rate constant for cathepsin L.
Test [2] concerns the target Cathepsin B (Homo sapiens) (UniProt P07858). In words: Second order rate constant for cathepsin B.
A further test has as its target Pepsin A (Sus scrofa, UniProt P00791). In words: (§1) Inhibitory activity against aspartyl protease pepsin.
Test [3] addresses Procathepsin L (Homo sapiens) (UniProt P07711). In words: Inhibitory activity against cysteine protease cathepsin L.
Test [4] addresses Serine protease 1 (Homo sapiens) (UniProt P07477). In words: Inhibitory activity against serine protease trypsin.
The target of another test is Pepsin A (Sus scrofa) (UniProt P00791). The test is described as §1.
The target in test [5] is Cathepsin B (Homo sapiens) (UniProt P07858). In words: Inhibitory activity against cysteine protease cathepsin B.

Non-standard residues stand in square brackets, D forms with d. Residues, ends and D or L forms follow the SMILES beside them. ξ: configuration not given here. *: point of attachment. Sta = CC(C)C[C@H](N)[C@@H](O)CC(=O)O; X1 = CC(=O)c1cn(*)c2ccccc12; Isovaleryl = CC(C)CC(=O)*; ξIva = CCC(C)(N)C(=O)O

Sequence of Pepsin A (P00791 whole entry): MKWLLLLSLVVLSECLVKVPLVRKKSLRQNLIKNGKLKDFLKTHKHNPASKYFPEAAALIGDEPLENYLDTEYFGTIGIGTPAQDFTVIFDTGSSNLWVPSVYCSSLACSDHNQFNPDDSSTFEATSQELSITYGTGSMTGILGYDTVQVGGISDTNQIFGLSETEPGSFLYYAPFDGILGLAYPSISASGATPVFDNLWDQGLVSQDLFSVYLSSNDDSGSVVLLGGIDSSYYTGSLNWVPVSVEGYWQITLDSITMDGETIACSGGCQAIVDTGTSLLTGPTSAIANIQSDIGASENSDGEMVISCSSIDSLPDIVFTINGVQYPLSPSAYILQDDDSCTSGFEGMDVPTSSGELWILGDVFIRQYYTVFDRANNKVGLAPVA
Sequence of Procathepsin L (Homo sapiens) (P07711 114-333 limits assumed): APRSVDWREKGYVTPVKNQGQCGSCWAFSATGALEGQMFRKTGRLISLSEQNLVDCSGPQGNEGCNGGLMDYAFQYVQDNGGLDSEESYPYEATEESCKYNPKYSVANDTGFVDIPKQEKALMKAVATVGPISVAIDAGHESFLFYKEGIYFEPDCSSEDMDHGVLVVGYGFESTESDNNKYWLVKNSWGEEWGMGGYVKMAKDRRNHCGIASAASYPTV
Sequence of Serine protease 1 (Homo sapiens) (P07477 whole entry): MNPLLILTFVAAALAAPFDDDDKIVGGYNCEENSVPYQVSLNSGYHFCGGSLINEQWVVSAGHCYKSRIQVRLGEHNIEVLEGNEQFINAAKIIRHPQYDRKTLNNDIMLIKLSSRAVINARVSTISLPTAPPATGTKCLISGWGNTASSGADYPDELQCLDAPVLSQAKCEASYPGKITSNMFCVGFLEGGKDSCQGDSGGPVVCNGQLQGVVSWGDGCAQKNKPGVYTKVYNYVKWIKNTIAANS
Sequence of Pepsin A (Sus scrofa) (P00791 60-385 limits assumed): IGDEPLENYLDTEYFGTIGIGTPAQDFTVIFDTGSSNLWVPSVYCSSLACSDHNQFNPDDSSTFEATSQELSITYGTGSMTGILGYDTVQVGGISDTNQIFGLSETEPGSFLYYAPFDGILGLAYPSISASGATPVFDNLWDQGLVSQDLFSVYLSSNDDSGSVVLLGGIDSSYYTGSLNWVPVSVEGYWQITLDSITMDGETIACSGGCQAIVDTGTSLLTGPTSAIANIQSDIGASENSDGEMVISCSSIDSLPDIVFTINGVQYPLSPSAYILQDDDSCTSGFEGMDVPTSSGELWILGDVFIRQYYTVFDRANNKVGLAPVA

With `CC(C)CCNC(=O)[C@H](CC(C)C)NC(=O)[C@@H]1N[C@H]1C(=O)O`, the k2/Ki in test [1] amounted to 120000 M⁻¹ s⁻¹; in test [2], 17000 M⁻¹ s⁻¹.

As for `CCC(C)(N)C(=O)N[C@H](C(=O)N[C@@H](CC(C)C)[C@@H](O)CC(=O)N[C@@H](C)C(=O)n1cc(C(C)=O)c2ccccc21)C(C)C` (some centres undefined) (H-[ξIva]V[Sta]A-X1), the inhibition constant Ki at Pepsin A came out at 3 nM.

In turn, `CC(C)CC(=O)N[C@H](C(=O)N[C@H](C(=O)N[C@@H](CC(C)C)[C@@H](O)CC(=O)N[C@@H](C)C(=O)N[C@@H](CC(C)C)[C@@H](O)CC(=O)O)C(C)C)C(C)C` (Isovaleryl-VV[Sta]A[Sta]-OH) gave a Ki on Pepsin A of 0.046 nM. This Ki is about 65-fold lower than that of the compound before.

As for `CC[C@H](NC(=O)C[C@H](O)[C@H](CC(C)C)NC(=O)[C@H](CC(C)C)NC(=O)[C@@H]1N[C@H]1C(=O)O)C(=O)N[C@H](/C=C/C(=O)O)CCCN=C(N)N` [MIRAZIRIDINE A], the affinity on Pepsin A, expressed as Ki, was 14 nM. Besides, the Affinity in test [3] amounted to 1e+06 M⁻¹ s⁻¹; in test [4] it was 60 µM; on Pepsin A (Sus scrofa), 14 nM; in test [5], 15000 M⁻¹ s⁻¹.

Broadly, the Ki is the equilibrium dissociation constant of an inhibitor or competing ligand from its target. High values mean a looser hold on the target, low ones a stronger hold on the target.
